In patent publication US12404263B2, “ASK1 inhibiting agents” (BIOGEN MA INC., priority 2018, dated 2025):
Like-named read-outs stand apart in the source and are kept apart here.

Tests used:
GST-hASK1 = target: T1, GST-hASK1 (Homo sapiens, UniProt Q99683); test: ASK1 TR-FRET assay; assay type: biochemical; conditions: 5 nM GST-hASK1, 100 μM ATP, 2 μM STK Substrate 3
T1 construct: GST (N); purchased Life Technologies PV4011
T1 sequence (Q99683 1-1374): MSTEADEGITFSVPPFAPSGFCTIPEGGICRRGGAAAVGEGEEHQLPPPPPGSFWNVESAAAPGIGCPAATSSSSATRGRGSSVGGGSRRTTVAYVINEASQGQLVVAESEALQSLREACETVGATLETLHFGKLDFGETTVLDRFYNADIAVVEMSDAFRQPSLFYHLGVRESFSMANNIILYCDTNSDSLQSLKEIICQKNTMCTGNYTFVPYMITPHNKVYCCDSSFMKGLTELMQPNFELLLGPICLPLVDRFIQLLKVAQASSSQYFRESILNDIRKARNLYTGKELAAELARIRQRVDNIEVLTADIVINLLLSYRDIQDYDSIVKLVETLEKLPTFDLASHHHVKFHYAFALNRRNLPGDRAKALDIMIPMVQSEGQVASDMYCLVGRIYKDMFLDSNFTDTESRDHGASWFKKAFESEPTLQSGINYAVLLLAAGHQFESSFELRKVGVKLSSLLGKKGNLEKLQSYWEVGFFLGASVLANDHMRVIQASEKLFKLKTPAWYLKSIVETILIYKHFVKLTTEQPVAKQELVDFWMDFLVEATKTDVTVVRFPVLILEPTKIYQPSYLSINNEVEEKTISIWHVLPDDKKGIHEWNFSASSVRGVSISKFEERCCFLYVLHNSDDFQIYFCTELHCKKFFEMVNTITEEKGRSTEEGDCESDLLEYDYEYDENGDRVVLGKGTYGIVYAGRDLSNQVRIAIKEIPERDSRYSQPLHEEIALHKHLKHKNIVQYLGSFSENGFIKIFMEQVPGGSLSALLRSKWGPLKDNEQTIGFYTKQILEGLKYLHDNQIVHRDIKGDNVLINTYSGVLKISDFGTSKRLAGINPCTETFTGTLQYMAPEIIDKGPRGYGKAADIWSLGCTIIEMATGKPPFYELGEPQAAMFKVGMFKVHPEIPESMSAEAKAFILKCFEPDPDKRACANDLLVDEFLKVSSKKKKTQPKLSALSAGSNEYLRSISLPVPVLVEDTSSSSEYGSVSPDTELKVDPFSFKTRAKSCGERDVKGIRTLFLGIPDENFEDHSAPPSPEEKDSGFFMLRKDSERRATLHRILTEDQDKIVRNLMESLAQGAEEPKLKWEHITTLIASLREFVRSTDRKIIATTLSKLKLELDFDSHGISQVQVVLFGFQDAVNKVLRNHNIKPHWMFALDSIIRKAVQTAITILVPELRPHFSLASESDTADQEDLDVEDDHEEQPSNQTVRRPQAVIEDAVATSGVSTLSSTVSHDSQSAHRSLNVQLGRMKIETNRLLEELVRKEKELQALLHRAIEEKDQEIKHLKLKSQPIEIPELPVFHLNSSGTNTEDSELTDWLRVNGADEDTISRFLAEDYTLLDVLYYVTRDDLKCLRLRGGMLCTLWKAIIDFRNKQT
Protocol: The protein kinase activity of 5 nM GST-hASK1 (Life Technologies PV4011) was assayed with 100 μM ATP and 2 μM of HTRF biotinylated STK Substrate 3 (CisBio Kit 62ST3PEJ), at ambient temperature in 25 mM Hepes, pH 7.5, 50 mM NaCl, 10 mM MgCl2, 0.02% Brij-35, 1 mM DTT, and 1% DMSO.
Briefly, 20 μL aliquots of a 1.5× stock of ASK1, STK Substrate 3 and Assay Buffer were distributed in the wells of a white 384 well Optiplate, prior to addition of 0.3 μL of a 100× compound stock in DMSO, or DMSO alone in Blank and 100% Activity Controls. After a 10 minute pre-incubation, ASK1 protein kinase activity was initiated by addition of 10 μL of 300 μM ATP. After 5 hours, the kinase activity was quenched by addition of 30 μL of CisBio Kit 62ST3PEJ components: 0.5 μM of Streptavidin XL665; and 100×STK Antibody-Eu Cryptate; in Detection Buffer containing sufficient EDTA to chelate Mg^2+ in the assay buffer. The plates were read after 65 minutes in an Envision Plate reader, with the following components and settings: Top Mirror, Lance Delfia Dual (662); UV Ex Filter, 320 nm (111); Emission Filter for donor, 615 nm (203); Emission Filter for Acceptor; 665 nm (205); and 100 μsec delay, with 665/615 ratio output. […]

[1] = target: T2, ASK1 T838 auto phosphorylation (Homo sapiens, UniProt Q99683); test: ASK1 (AUTO PHOS T838) assay in HEK-293T cells, MSD format; assay type: cell-based; conditions: HEK-293T cells transfected with ASK1-V5, 1 hr compound incubation
T2 construct: transfected with 9 μg of ASK1-V5 tagged full length plasmid; expressed in transfected cells; host or cells: HEK-293T
T2 sequence (Q99683 1-1374): T1 sequence (Q99683 1-1374)
Protocol: ASK1 T838 auto phosphorylation was measured in HEK-293T cells using MSD assay format. HEK 293T cells were seeded in 15 cm plates at a density of 18 million cells and 20 mL DMEM with 10% FBS, Pen/Strep media. The plates were incubated at 37° C. overnight. Media on plates was changed to OPTI-MEM, serum free media and cells were transfected with 9 μg of ASK1-V5 tagged full length plasmid using Lipofectamine 2000 (Invitrogen) and the plates were incubated at 37° C. overnight. Cells were trypsinized, counted on Nexcellometer and plated into 96 well tissue culture plates with 100,000 cells/well and 200 μL media. Cells were incubated for 4 hr at 37° C. then ASK1 compounds were added using a HP 300e. Compounds were tested at 20 μM with 3 fold, 10 point dilution points then incubated for 1 hr at 37° C. A lysis buffer (Cell Signaling) was prepared with protease and phosphatase inhibitor and maintained at 4° C. until use. Media from cells was discarded and 120 μL of cold lysis buffer was added to the cells, the plate was shaken 4° C. for 1 hr. Lysate was mixed using Apricot liquid handler; aspirating up and down 16 times at high speed using 50 μL volume. 50 μL of cell lysates were transferred to a pre-coated MSD plates containing mouse anti-V5 antibody (1:500 dilution) and washed 3× with MSD wash buffer (TBST) and blocked with a 3% BSA solution. Plates were then incubated on a plate shaker overnight at 4° C. Plates were washed 3× with MSD wash buffer and 50 μL of rabbit anti-pASK1 T838 antibody was added to the wells and incubated for 2 hr at room temperature on a plate shaker. Plates were then washed and 50 μL of goat anti-rabbit sulfa-tag (1:500 dilution) was added to wells, and incubated for 1 hr at room temperature on a plate shaker. Plates were washed 3× and 150 μL of 2×MSD Read buffer was added to wells. Plates were immediately read on a MSD Instrument Reader where chemoluminecense signal was measured. Data was analyzed using Graph Pad or Genedata, the data was normalized and plotted, % activity versus log of compound concentration. The IC50 values were obtained from a 4 parameter fit.

ASK1/MAP3K5 = target: T3, ASK1/MAP3K5 (Homo sapiens, UniProt Q99683); test: ASK1/MAP3K5 assay by Reaction Biology Corp. (33P-ATP filter-binding); assay type: biochemical; conditions: 20 μM MBP, 100 μM ATP
T3 construct: purchased Reaction Biology Corp. (Malvern, PA)
T3 sequence (Q99683 1-1374): T1 sequence (Q99683 1-1374)
Protocol: Alternatively, the protein kinase inhibitory activity of the compounds described herein were tested using the ASK1/MAP3K5 assay by Reaction Biology Corp. (Malvern, PA). The assay procedure follows (and is also available on the Reaction Biology Corp. website). • Base Reaction Buffer: 20 mM Hepes (pH 7.5), 10 mM MgCl2, 1 mM EGTA, 0.02% Brij35, 0.02 mg/mL BSA, 0.1 mM Na3VO4, 2 mM DTT, 1% DMSO; • Substrate: 20 μM of myelin basic protein (MBP) and 100 μM ATP; • Protein kinase: ASK1/MAP3K5. Reaction Procedure: • 1. Prepare indicated substrate in freshly prepared Base Reaction Buffer. • 2. Deliver any required cofactors to the substrate solution. • 3. Deliver indicated kinase into the substrate solution and gently mix. • 4. Deliver compounds in DMSO into the kinase reaction mixture by Acoustic; technology (Echo550; nanoliter range), incubate for 20 minutes at room temperature. • 5. Deliver ^33P-ATP (specific activity 10 μCi/μL) into the reaction mixture to initiate the reaction. • 6. Incubate kinase reaction for 2 hours at room temperature. • 7. Reactions are spotted onto P81 ion exchange paper. • 8. Detect kinase activity by filter-binding method.

MDR1 = target: T4, MDR1 (Homo sapiens, UniProt P08183); test: MDR1-MDCK assay; assay type: in vitro ADME; conditions: read-out: in vitro ER (efflux ratio)
T4 construct: host or cells: MDCK
T4 sequence (P08183 whole entry): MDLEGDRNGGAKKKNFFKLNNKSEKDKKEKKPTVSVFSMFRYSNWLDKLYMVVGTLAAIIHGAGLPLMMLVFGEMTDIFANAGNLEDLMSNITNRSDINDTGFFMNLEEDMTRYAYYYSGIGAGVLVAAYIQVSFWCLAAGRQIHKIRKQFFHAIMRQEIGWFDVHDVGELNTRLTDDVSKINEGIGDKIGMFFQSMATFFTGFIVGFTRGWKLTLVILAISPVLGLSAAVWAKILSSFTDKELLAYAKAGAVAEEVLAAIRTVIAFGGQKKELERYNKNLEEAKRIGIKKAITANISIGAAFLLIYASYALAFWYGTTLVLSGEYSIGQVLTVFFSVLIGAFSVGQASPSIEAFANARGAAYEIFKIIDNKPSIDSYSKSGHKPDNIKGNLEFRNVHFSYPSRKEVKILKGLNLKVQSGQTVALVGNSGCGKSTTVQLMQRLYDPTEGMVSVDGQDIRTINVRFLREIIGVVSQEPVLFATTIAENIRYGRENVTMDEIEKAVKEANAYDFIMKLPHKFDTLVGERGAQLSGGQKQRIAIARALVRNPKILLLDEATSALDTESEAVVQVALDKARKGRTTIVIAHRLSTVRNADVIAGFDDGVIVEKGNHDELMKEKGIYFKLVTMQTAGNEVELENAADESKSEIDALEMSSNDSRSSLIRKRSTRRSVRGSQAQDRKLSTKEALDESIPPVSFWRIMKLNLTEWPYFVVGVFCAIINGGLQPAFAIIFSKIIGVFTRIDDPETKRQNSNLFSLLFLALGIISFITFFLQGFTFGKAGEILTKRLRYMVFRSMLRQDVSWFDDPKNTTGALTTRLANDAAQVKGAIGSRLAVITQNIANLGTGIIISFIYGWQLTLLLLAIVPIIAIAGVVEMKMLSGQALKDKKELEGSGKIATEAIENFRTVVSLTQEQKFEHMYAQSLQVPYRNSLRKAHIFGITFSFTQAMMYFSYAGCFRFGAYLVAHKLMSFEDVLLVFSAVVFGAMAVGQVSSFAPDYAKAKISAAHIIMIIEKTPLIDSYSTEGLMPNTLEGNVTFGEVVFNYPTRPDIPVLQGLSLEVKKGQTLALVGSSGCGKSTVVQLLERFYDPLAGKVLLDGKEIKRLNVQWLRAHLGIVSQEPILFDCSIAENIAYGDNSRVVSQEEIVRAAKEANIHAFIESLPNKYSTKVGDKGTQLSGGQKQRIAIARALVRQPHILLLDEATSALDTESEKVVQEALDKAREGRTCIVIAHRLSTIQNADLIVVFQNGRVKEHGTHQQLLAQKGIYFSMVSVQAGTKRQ
Protocol: To predict the CNS penetration of the compounds described herein, several compounds were selected for an in vitro MDR1-MDCK assay. These experiments are conducted using human MDR1 transfected MDCK cells (Absorption Systems, Exton, PA) and the compounds are tested at 1 μM concentration prepared in transport buffer (Hank's balanced salt solution with HEPES) and following the steps below: • 1. MDR1-MDCK cell are cultured for 7 days in 96 well transwell insert plates (Corning). Insert plates are washed before the assay and TEER (trans epithelial electric resistance) is measured. • 2. These plates are loaded with test compound solution 85 μL for A-B transport and 260 μL for B-A transport in the respective donor compartment. The volume of receiver buffer (Transport buffer supplemented with 1% BSA) in the respective receiver compartment is 250 μL and 75 μL. • 3. 10 μL samples is taken from donor compartment (T=0 timepoint) • 4. Assay plates are incubated for 120 minutes. • 5. At 120 minutes (T=120 timepoint) samples from respective donor (10 μL) and receiver (50 μL) compartments is taken. • 6. After addition of 40 μL transport buffer with BSA to donor samples, crash solution (Acetonitrile with internal standard, 110 μL) is added to all samples. • 7. […] Samples are analyzed using LC-MS/MS coupled with high throughput injection system. • 9. […]

[2] = In vivo brain penetration (rat Kpuu); conditions: brain and plasma (unbound concentrations), IV infusion four hours, 1 mg/kg, steady state
Protocol: To evaluate the CNS penetration of the compounds described herein, several compounds were selected for in vivo rat Kpuu studies. In these experiments the compounds are administered via an IV infusion (using N,N-dimethylacetamide:ethanol:1,2-propylene glycol:water in a 1:1:3:5 ratio as the vehicle) in the carotid artery for a period of four hours (1 mg/kg, 0.1 mg/mL) to reach steady state. After this time the plasma and brain concentration levels are quantified, and the values are adjusted by the measured protein binding in plasma and brain homogenate to calculate the K puu (see Di, L.; Kerns, E. H. Blood-Brain Barrier in Drug Discovery (Wiley)) according to the equation below. […]
Plasma and brain protein binding values were generated via the Rapid Equilibrium Dialysis method. […] At the conclusion of incubation samples were taken from both matrix and buffered compartments, matrix-matched using blank buffer and matrix, extracted with acetonitrile, diluted with water, and analyzed utilizing an Agilent RapidFire 365 high-throughput LC coupled with MS/MS detection via an AB Sciex 5500. Free fractions (fu) were then calculated by comparing internal standard/analyte peak-area ratios of matrix and buffered compartments.
Total drug concentration in plasma and brain tissue was measured via well-established bioanalytical extraction (protein precipitation) and detection methods (LC-MS/MS). […]

Compound	IC50 (GST-hASK1)	IC50 ([1]; read-out: IC50)	IC50 (ASK1/MAP3K5)	efflux ratio at 120 min, 1 μM (MDR1)	Kp uu at 4 h [2]	IC50 [1]
COc1ncccc1C(=O)Nc1cccc(-c2nncn2C(C)C)n1 [Compound 1, N-(6-(4-Isopropyl-4H-1,2,4-triazol-3-yl)pyridin-2-yl)-2-methoxynicotinamide]	< 100 nM	≤ 1000 nM				
COc1ncccc1C(=O)Nc1cccc(-c2nncn2C2(C(F)(F)F)CC2)n1 [Compound 16, 2-Methoxy-N-(6-(4-(1-(trifluoromethyl)cyclopropyl)-4H-1,2,4-triazol-3-yl)pyridin-2-yl)nicotinamide]		≤ 1000 nM	≤ 100 nM	< 3	0.41	
COc1ncc(F)cc1C(=O)Nc1cccc(-c2nncn2C2(C(F)(F)F)CC2)n1 [Compound 17, 5-Fluoro-2-methoxy-N-(6-(4-(1-(trifluoromethyl)cyclopropyl)-4H-1,2,4-triazol-3-yl)pyridin-2-yl)nicotinamide]			≤ 100 nM			†

Now from value to compound:

IC50 (GST-hASK1)	IC50 ([1]; read-out: IC50)	IC50 (ASK1/MAP3K5)	efflux ratio at 120 min, 1 μM (MDR1)	Kp uu at 4 h [2]	IC50 [1]	Compound
	≤ 1000 nM	≤ 100 nM				COc1ncc(C)cc1C(=O)Nc1cccc(-c2nncn2[C@@H](C)C(F)(F)F)n1 [Compound 11, (S)-2-Methoxy-5-methyl-N-(6-(4-(1,1,1-trifluoropropan-2-yl)-4H-1,2,4-triazol-3-yl)pyridin-2-yl)nicotinamide]
	≤ 1000 nM	≤ 100 nM				COc1ncc(F)cc1C(=O)Nc1cccc(-c2nncn2[C@@H](C)C(F)(F)F)n1 [Compound 12, (S)-5-Fluoro-2-methoxy-N-(6-(4-(1,1,1-trifluoropropan-2-yl)-4H-1,2,4-triazol-3-yl)pyridin-2-yl)nicotinamide]
	≤ 1000 nM	≤ 100 nM				COc1ncc(Cl)cc1C(=O)Nc1cccc(-c2nncn2[C@@H](C)C(F)(F)F)n1 [Compound 13, (S)-5-Chloro-2-methoxy-N-(6-(4-(1,1,1-trifluoropropan-2-yl)-4H-1,2,4-triazol-3-yl)pyridin-2-yl)nicotinamide]
